What all share (type): cell-based
One series has as its system H460 cells. In words: MTT cytotoxicity on lung cancer cells (H460). The conditions noted are these: medium with 0.5% serum. How it is done:
H460 cells were dispensed in medium containing 0.5% serum at 1×10^4 per well, and were treated with the compounds. MTT solution (5 mg/mL) was diluted 10-fold, and dispensed at 10 μl per well, followed by culturing for 30 minutes. The precipitate was dissolved in 100 μl of DMSO, and the absorbance was measured using a microplate reader (Sunrise, TECAN) at a wavelength of […].

Series [1] in a line: Cytotoxicity on normal cell line L929 (cell counting kit-8, WST-8). The note with it: mouse, L929 cells (NCTC clone 929, fibroblast cell line). On the procedure: (§1) For the normal cell lines, five cell lines, VERO (African green monkey kidney cell line), HFL-1 (human embryonic lung cell line), L929 (NCTC clone 929, mouse fibroblast cell line), NIH 3T3 (mouse embryonic fibroblast cell line), and CHO-K1 (Chinese hamster overy cell line) were used.
(§2) For the cytotoxicity, all the cells were seeded at 1×10^4, and for a generalized test for investigating cell viability, the CC50 value, which is the concentration of a compound killing 50% of cells, was measured by cell counting kit-8 assay using tetrazolium salt named WST-8 displaying a pale yellow color.
On the technique in general: Tetrazolium dyes change colour on reduction, which living cells bring about.

The nature of series [2]: Cytotoxicity on normal cell line NIH 3T3 (cell counting kit-8, WST-8). The conditions noted are these: mouse, NIH 3T3 cells (embryonic fibroblast cell line); NIH 3T3 normal cell line. How it is done:
as §1, §2

Series [3] can be described thus: Cytotoxicity on normal cell line HFL-1 (cell counting kit-8, WST-8). The conditions noted are these: human, HFL-1 cells (embryonic lung cell line); HFL-1 normal cell line; read-out: Cytotoxicity CC50 (μM), FL-1. On the procedure: as §1, §2
Series [4] can be described thus: Cytotoxicity on normal cell line CHO-K1 (cell counting kit-8, WST-8). The note with it: Chinese hamster, CHO-K1 cells (ovary cell line). How it is done:
as §1, §2

A short description of series [5]: Cytotoxicity on normal cell line VERO (cell counting kit-8, WST-8). The conditions noted are these: African green monkey, VERO cells (kidney cell line), read-out: Cytotoxicity CC50 (μM), ERO. How it is done:
as §1, §2

For `Cc1ccnc(NC(=O)/C=C\C(=O)N2CCCCC2)c1` [Example 1-14, (Z)—N-(4-methylpyridin-2-yl)-4-oxo-4-(piperidin-1-yl)but-2-enamide], the “Inhibition of proliferation of H460 cells (MTT, FIG. 1)” value with H460 cells is recorded as “significantly inhibited the proliferation of H460 cells in a dose-dependent manner”.
In general, CC50 refers to the concentration that lowers cell viability or growth by half. For `Cc1ccnc(NC(=O)/C=C\C(=O)N2CCOCC2)c1` [Example 1-20, (Z)—N-(4-methylpyridin-2-yl)-4-morpholino-4-oxobut-2-enamide], the CC50 in series [1] was 100 µM; in series [2], over 100 µM; in series [3], 100 µM; in series [4], over 100 µM; in series [5], 100 µM. Further, in the series on H460 cells, the “Inhibition of proliferation of H460 cells (MTT, FIG. 1)” value is recorded as “significantly inhibited the proliferation of H460 cells in a dose-dependent manner”.

(Values after patent publication US20160152607A1, “MALEIC ACID DERIVATIVE, PRODUCTION METHOD FOR SAME, AND ANTI-CANCER COMPOSITION COMPRISING SAME” (Medicinal Bioconvergence Research Center, priority 2013, published 2016).)
